Data as given in patent publication US20210268030A1, “FIBROADIPOGENIC PROGENITOR-DERIVED EXOSOMES FOR REGENERATION OF DYSTROPHIC MUSCLES” (EXOFIX S.R.L., priority 2018, published 2021).

Tests used:
CD63 = assay: In situ immunofluorescence for CD63 on muscle sections; type: in vivo, mdx mice
Experimental: (§1) Animals were used at the specified age and treated for the indicated periods with daily intra peritoneal injections of Trichostatin A, TSA (0.6 mg/kg/day; #T8552, Sigma), dissolved in phospate-saline solution or in phospate-saline alone as vehicle control (CTR). Muscle injury was performed by intramuscular injection in Tibliais Anterior (TA) of Cardiotoxin—CTX− (10 μM, 10 mg/mL) (#L8102, Lotaxan Valence, France, http://www.latoxan.com), 3 days before mice sacrifice.
For immunofluorescence analysis, cryo-sections and cells were fixed in 4% PFA for 10 min and permeabilized with 100% cold acetone (#32201, Sigma) for 6 min at −20° C. or 100% cold Methanol (#32213, Sigma) for 6 min at −20° or with 0.25% Triton for 15 min at RT. Muscle sections were blocked for 1 h with a solution containing 4% BSA (#A7030, Sigma) in PBS. […] Sections were incubated with DAPI in PBS for 5 minutes for nuclear staining, washed in PBS, and mounted with glycerol 3:1 in PBS. […]

mdx muscles = assay: Regeneration, fibrosis and inflammation in mdx tibialis anterior after exosome injection or systemic TSA; type: in vivo, mdx mice; details: 21 days; exosomes intramuscular every 7 days or TSA daily intra-peritoneal
Experimental: as §1
FAPs-derived exosomes at a final concentration of 10 μg in 20 μL of PBS1x (0.5 ug/μl) (#14190-1444, Gibco by life technologies) and its vehicle of control (20 μl PBS1x) were injected 3 times in left TA of young C57BL6/mdx mice: every 7 days for 21 days.
For Masson Trichrome staining to analyze fibrotic tissue, muscle cryo-sections were fixed for 20′ at 56° C. in Bouin's Solution (#HT10132, L Sigma) and then stained in Working Weigert's Iron Hematoxilin solution for 5 min (#HT1079, Sigma), washed in running tap water for 5 min and stained in Biebrich Scarlet-Acid Fucsin for 5 min (#HT151, Sigma). Sections were rinsed in de-ionized water and re-fixed in freshly made Phosphomolybdic/Phosphotungstic/dH2O (1:1:2) acid solution for 8 min (#HT153, #HT152, Sigma), and then they are stained in Aniline Blue solution for 5 min (#HT154, Sigma) and in acid acetic 1% for 2 min (#27221, Sigma). The slides were dehydratated in ethanol (#02860, Sigma) and xilene (#X1040, Sigma) and mounted with EUKITT (#03989, Sigma), then visualized using a Nikon Eclipse 90i: collagen fibers are stained in blue, the nuclei stained in black and the muscle tissue is stained in red. miRNA in situ hybridization was performed as described by Pena (2009) in formaldehyde and carbodiimide (EDC)-fixed TA cryo-sections (0.16M 90 min at RT,_#25952-53-8, Merck KGaA). After washes with 0.2% glycine (#G8898, Sigma) and TBS, cryo-sections were acetylated using 0.1 M triethanolamine and 0.25% acetic anhydride for 25 min at RT (respectively #90275, #A6404, Sigma). This steps are followed by a pre-hybridization using 2× of SSC, 25% formamide (#F9037, Sigma); 0.2% Triton (#X100, Sigma) 30 min at RT and by the over night hybridization at 4° C. with the has-miR206 probe (10 pmol, #18100-01, exiqon) dissolved in a solution of 50% formamide, 250 μg/ml tRNA (#R1753, Sigma), 200 μg/ml SSDNA (#D7656, Sigma), 10% dextran sulphate (#D8906, Sigma) and 2× SSC. The hybridization was followed by specific washes with SSC to eliminate non specific binding of probe (5× SSC 5 min at RT, 1× SSC 15 min at 45° C., 2% BSA in 0.2× SSC 15 min at 4° C., 2× SSC 5 min at RT, TNbuffer 10 min at RT and TNT buffer 15′ at RT) and by the incubation of cryo-section using anti-digoxigenin-ap fab fragments ( 1/100, #11093274910, Roche) dissolved in TNbuffer for 2 hours at RT. To reveal the miRNA probe specific binding cryo-sections, covered from light, were incubating over night at 4° C. with 0.375 mg/ml of NBT and 0.188 mg/ml BCIP dissolved in a solution of TMNbuffer (respectively #11383213001 and #11383221001, Roche).
For immunofluorescence analysis, cryo-sections and cells were fixed in 4% PFA for 10 min and permeabilized with 100% cold acetone (#32201, Sigma) for 6 min at −20° C. or 100% cold Methanol (#32213, Sigma) for 6 min at −20° or with 0.25% Triton for 15 min at RT. Muscle sections were blocked for 1 h with a solution containing 4% BSA (#A7030, Sigma) in PBS. […]

mdx mice = details: young vs old mdx mice; Mozzetta et al. 2013, Saccone et al. 2014; cited from earlier work

With `CC(/C=C/C(=O)NO)=C\[C@@H](C)C(=O)c1ccc(N(C)C)cc1` [TSA, Trichostatin A] the “CD63 signal in the interstitium of muscles” value (CD63; 1 year-old mdx mice) was “could not increase”, the CD63-positive interstitial signal (CD63; mdx young mice (1.5-month), compared to young mdx CTR) was “significant increase” and the “embryonic-MyHC-positive myofibers (eMyHC)” value (mdx muscles) was “increase”. The “fibers calibre, cross sectional area (CSA)” value (mdx muscles) was “increase”, the fibrosis (mdx muscles) was “reduce” and the “inflammation (MPO)” value (mdx muscles) was “significant reduction”. The “muscle fiber area fraction (MFAF)” value (mdx muscles) was “increase” and the regeneration (mdx mice) was “promotes regeneration in young, but not old”.
